Assay results published in patent US10227357B2, “Compounds and methods for kinase modulation, and indications therefor” (Plexxikon Inc., priority 2012, dated 2019).

Assays:
c-kit kinase = target: T1, c-kit kinase (Homo sapiens, UniProt P10721); experiment: c-Kit biochemical assay, AlphaScreen, 10 μM ATP; conditions: c-kit biochemical inhibitory activity; read-out: Biochemical activity (IC50 μM) Kit
T1 construct: The c-kit (or kinase domain thereof) is an active kinase in AlphaScreen; poly-Histidine tag (in-house protein only) (cleaved yes); host or cells: E. coli BL21(DE3)RIL, co-expressed with PTP1B
T1 sequence (P10721 26-976): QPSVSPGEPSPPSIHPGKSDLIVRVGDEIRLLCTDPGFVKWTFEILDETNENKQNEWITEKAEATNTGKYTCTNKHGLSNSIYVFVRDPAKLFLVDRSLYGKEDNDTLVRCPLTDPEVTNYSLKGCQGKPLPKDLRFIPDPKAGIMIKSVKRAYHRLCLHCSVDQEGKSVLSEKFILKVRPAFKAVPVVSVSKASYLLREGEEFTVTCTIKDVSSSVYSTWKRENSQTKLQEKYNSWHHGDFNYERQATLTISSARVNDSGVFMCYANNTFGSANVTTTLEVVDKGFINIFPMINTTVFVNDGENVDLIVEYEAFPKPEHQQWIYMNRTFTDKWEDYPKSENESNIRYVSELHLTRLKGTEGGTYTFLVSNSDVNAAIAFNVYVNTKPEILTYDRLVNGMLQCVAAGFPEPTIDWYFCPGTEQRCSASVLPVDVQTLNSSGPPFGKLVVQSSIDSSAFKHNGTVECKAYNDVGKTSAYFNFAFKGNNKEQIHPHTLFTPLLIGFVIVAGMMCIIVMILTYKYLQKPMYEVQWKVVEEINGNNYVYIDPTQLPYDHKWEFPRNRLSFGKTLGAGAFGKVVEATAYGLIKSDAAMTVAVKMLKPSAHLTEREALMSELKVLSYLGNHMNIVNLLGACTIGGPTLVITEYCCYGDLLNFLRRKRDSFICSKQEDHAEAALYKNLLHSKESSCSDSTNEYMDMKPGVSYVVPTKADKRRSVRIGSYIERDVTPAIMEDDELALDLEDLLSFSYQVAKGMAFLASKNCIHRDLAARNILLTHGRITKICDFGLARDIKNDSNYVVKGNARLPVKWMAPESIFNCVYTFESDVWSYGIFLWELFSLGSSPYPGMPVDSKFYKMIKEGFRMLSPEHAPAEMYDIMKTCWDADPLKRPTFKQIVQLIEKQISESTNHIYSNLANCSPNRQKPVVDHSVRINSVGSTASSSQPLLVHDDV
How it was run: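 His-tagged c-Kit expressed in E. coli with co-expressed PTP1B (dephosphorylated), tag removed; 0.1 ng per reaction with biotinylated-peptide substrate in 50 mM HEPES pH 7.2, 5 mM MgCl2, 5 mM MnCl2, 5% DMSO, 10 μM ATP, 1 h at room temperature. Phosphorylation detected by AlphaScreen (streptavidin donor, PY20 acceptor beads); IC50 from 8-point 1:3 dilution series.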

c-kit mutant D816V = target: T2, c-kit mutant D816V (Homo sapiens, UniProt P10721, D816V/DEL694-753); experiment: c-Kit mutant D816V biochemical assay, AlphaScreen; conditions: c-kit D816V biochemical inhibitory activity; read-out: Biochemical activity (IC50 μM) Kit D816V
T2 construct: residues 551-934, kinase insertion domain residues 694-753 deleted; 6x-histidine (N); made in house; host or cells: E. coli Arctic Express (DE3) RIL (Stratagene)
T2 sequence (P10721 with tags, fused parts or gaps DEL694-753/D816V): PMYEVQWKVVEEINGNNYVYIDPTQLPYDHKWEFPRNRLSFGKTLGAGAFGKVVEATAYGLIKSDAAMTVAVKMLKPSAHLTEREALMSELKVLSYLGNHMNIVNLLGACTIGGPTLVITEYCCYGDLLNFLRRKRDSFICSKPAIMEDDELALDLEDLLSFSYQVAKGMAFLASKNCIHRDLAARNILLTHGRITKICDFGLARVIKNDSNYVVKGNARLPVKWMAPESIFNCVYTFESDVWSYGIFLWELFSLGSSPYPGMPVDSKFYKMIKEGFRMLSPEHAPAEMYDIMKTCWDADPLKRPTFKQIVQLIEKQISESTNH
How it was run: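 Eight-point, threefold compound series incubated 30 min at room temperature with E. coli-produced D816V kinase, 10 μM ATP, Mg2+/Mn2+ HEPES buffer pH 7.2 and 5% DMSO. After EDTA stop, streptavidin and anti-phosphotyrosine (PY20) AlphaScreen beads gave the read-out, and IC50 was fitted from the concentration–signal curve.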

SMILES	IC50 (c-kit kinase) [µM]	IC50 (c-kit mutant D816V) [µM]
COc1ncc(CNC(=O)N2CCN(c3ncnc4[nH]c(-c5ccc(F)cc5)cc34)CC2)cc1F [P-0087, N-[(5-fluoro-6-methoxy-3-pyridyl)methyl]-4-[6-(4-fluorophenyl)-7H-pyrrolo[2,3-d]pyrimidin-4-yl]piperazine-1-carboxamide]	1 to 10	0.0001 to 1
C[C@H](NC(=O)N1CCN(c2ncnc3[nH]c(-c4ccc(F)cc4)cc23)CC1)c1cccc(Cl)c1 [P-0027, N-[(1S)-1-(3-chlorophenyl)ethyl]-4-[6-(4-fluorophenyl)-7H-pyrrolo[2,3-d]pyrimidin-4-yl]piperazine-1-carboxamide]	10 to 200	0.0001 to 1
CS(=O)(=O)Nc1ccc(-c2ncnc3[nH]c(-c4ccc(F)cc4)cc23)c(F)c1F [P-0353, N-[2,3-difluoro-4-[6-(4-fluorophenyl)-7H-pyrrolo[2,3-d]pyrimidin-4-yl]phenyl]methanesulfonamide]	1 to 10	0.0001 to 1
O=C(Nc1ccc(OC(F)(F)F)cc1)N1CCN(c2ncnc3[nH]c(-c4ccc(Cl)cc4)cc23)CC1 [P-0134, 4-[6-(4-chlorophenyl)-7H-pyrrolo[2,3-d]pyrimidin-4-yl]-N-[4-(trifluoromethoxy)phenyl]piperazine-1-carboxamide]	0.0001 to 1	1 to 10
Nc1ccc(-c2ncnc3[nH]c(-c4ccc(F)cc4)cc23)cc1 [P-0416, 4-[6-(4-fluorophenyl)-7H-pyrrolo[2,3-d]pyrimidin-4-yl]aniline]	0.0001 to 1	0.0001 to 1
CCc1ccc(S(=O)(=O)NC2CCN(c3ncnc4[nH]c(-c5cn(C)nc5C)cc34)CC2)cc1 [P-0726, N-[1-[6-(1,3-dimethylpyrazol-4-yl)-7H-pyrrolo[2,3-d]pyrimidin-4-yl]-4-piperidyl]-4-ethyl-benzenesulfonamide]	0.0001 to 1	0.0001 to 1
Cc1n[nH]c2ncnc(-c3ccc(NS(=O)(=O)c4ccc(C(F)(F)F)nc4)cc3)c12 [P-0441, N-[4-(3-methyl-1H-pyrazolo[3,4-d]pyrimidin-4-yl)phenyl]-6-(trifluoromethyl)pyridine-3-sulfonamide]	10 to 200	0.0001 to 1
CS(=O)(=O)Nc1ccc(-c2ncnc3[nH]c(-c4ccc(F)cc4)cc23)c(F)c1 [P-0398, N-[3-fluoro-4-[6-(4-fluorophenyl)-7H-pyrrolo[2,3-d]pyrimidin-4-yl]phenyl]methanesulfonamide]	0.0001 to 1	0.0001 to 1
Cc1cc2c(-c3ccc(NS(=O)(=O)c4ccc(Cl)cc4F)cc3F)ncnc2[nH]1 [P-0352, 4-chloro-2-fluoro-N-[3-fluoro-4-(6-methyl-7H-pyrrolo[2,3-d]pyrimidin-4-yl)phenyl]benzenesulfonamide]	0.0001 to 1	1 to 10
O=C(NC1CCCC1)N1CCN(c2ncnc3[nH]ccc23)CC1 [P-0177, N-cyclopentyl-4-(7H-pyrrolo[2,3-d]pyrimidin-4-yl)piperazine-1-carboxamide]	10 to 200	0.0001 to 1
C[C@H](NC(=O)N1CCN(c2ncnc3cc(N4CCOCC4)sc23)CC1)c1ccc(F)cc1 [P-0589, N-[(1S)-1-(4-fluorophenyl)ethyl]-4-(6-morpholinothieno[3,2-d]pyrimidin-4-yl)piperazine-1-carboxamide]	10 to 200	0.0001 to 1
COc1ccc(CNS(=O)(=O)c2ccc(-c3ncnc4[nH]c(-c5ccc(F)cc5)cc34)cc2)cc1 [P-0423, 4-[6-(4-fluorophenyl)-7H-pyrrolo[2,3-d]pyrimidin-4-yl]-N-[(4-methoxyphenyl)methyl]benzenesulfonamide]	10 to 200	10 to 200
CCCS(=O)(=O)Nc1ccc(-c2ncnc3[nH]c(C)cc23)cc1 [P-0289, N-[4-(6-methyl-7H-pyrrolo[2,3-d]pyrimidin-4-yl)phenyl]propane-1-sulfonamide]	10 to 200	0.0001 to 1
COc1ccc(S(=O)(=O)Nc2ccc(-c3ncnc4[nH]nc(C)c34)cc2)cc1 [P-0444, 4-methoxy-N-[4-(3-methyl-1H-pyrazolo[3,4-d]pyrimidin-4-yl)phenyl]benzenesulfonamide]	1 to 10	0.0001 to 1
CS(=O)(=O)Nc1cccc(-c2cc3c(N4CCN(C(=O)NCc5ccc(F)cc5)CC4)ncnc3[nH]2)c1 [P-0107, N-[(4-fluorophenyl)methyl]-4-[6-[3-(methanesulfonamido)phenyl]-7H-pyrrolo[2,3-d]pyrimidin-4-yl]piperazine-1-carboxamide]	1 to 10	0.0001 to 1
O=S(=O)(Nc1ccc(-c2ncnc3[nH]c(-c4ccc(F)cc4)cc23)c(F)c1)C1CC1 [P-0401, N-[3-fluoro-4-[6-(4-fluorophenyl)-7H-pyrrolo[2,3-d]pyrimidin-4-yl]phenyl]cyclopropanesulfonamide]	10 to 200	0.0001 to 1
O=C(NCc1ccc(F)cc1)N1CCN(c2ncnc3cc(C4CCNCC4)sc23)CC1 [P-0596, N-[(4-fluorophenyl)methyl]-4-[6-(4-piperidyl)thieno[3,2-d]pyrimidin-4-yl]piperazine-1-carboxamide]	10 to 200	1 to 10
Cc1cc2c(-c3ccc(NS(=O)(=O)c4cc(Cl)c(Cl)s4)cc3)ncnc2[nH]1 [P-0299, 4,5-dichloro-N-[4-(6-methyl-7H-pyrrolo[2,3-d]pyrimidin-4-yl)phenyl]thiophene-2-sulfonamide]	1 to 10	1 to 10
O=S(=O)(Nc1cccc(-c2ncnc3[nH]c(-c4ccc(F)cc4)cc23)c1)C1CC1 [P-0413, N-[3-[6-(4-fluorophenyl)-7H-pyrrolo[2,3-d]pyrimidin-4-yl]phenyl]cyclopropanesulfonamide]	1 to 10	1 to 10
Cc1ccc(S(=O)(=O)Nc2ccc(-c3ncnc4[nH]c(C)cc34)c(F)c2)cn1 [P-0286, N-[3-fluoro-4-(6-methyl-7H-pyrrolo[2,3-d]pyrimidin-4-yl)phenyl]-6-methyl-pyridine-3-sulfonamide]	1 to 10	0.0001 to 1
COc1cc(-c2cc3c(N4CCN(C(=O)N[C@@H](C)c5ccc(F)cc5)C(C)(C)C4)ncnc3[nH]2)ccn1 [P-0643]	1 to 10	0.0001 to 1
Cc1ccc(-c2cc3c(N4CCN(C(=O)N[C@@H](C)c5cccc(OC(F)F)c5)C(C)(C)C4)ncnc3[nH]2)cn1 [P-0002, N-[(1S)-1-[3-(difluoromethoxy)phenyl]ethyl]-2,2-dimethyl-4-[6-(6-methyl-3-pyridyl)-7H-pyrrolo[2,3-d]pyrimidin-4-yl]piperazine-1-carboxamide]	1 to 10	0.0001 to 1
O=C(Nc1cccc(Cl)c1)N1CCN(c2ncnc3[nH]ccc23)CC1 [P-0168, N-(3-chlorophenyl)-4-(7H-pyrrolo[2,3-d]pyrimidin-4-yl)piperazine-1-carboxamide]	10 to 200	10 to 200
CCS(=O)(=O)Nc1ccc(-c2ncnc3[nH]c(-c4ccc(F)cc4)cc23)cc1 [P-0431, N-[4-[6-(4-fluorophenyl)-7H-pyrrolo[2,3-d]pyrimidin-4-yl]phenyl]ethanesulfonamide]	0.0001 to 1	0.0001 to 1
O=S(=O)(NCC1CC1)c1ccc(-c2ncnc3[nH]c(-c4ccc(F)cc4)cc23)c(F)c1 [P-0369, N-(cyclopropylmethyl)-3-fluoro-4-[6-(4-fluorophenyl)-7H-pyrrolo[2,3-d]pyrimidin-4-yl]benzenesulfonamide]	10 to 200	1 to 10
